Laboratory results as given in patent publication US12295396B2, “Antagonists of T2R54 and compositions and uses thereof” (Firmenich Incorporated, priority 2018, dated 2025).
Like-named read-outs stand apart in the source and are kept apart here.

Tests used:
T2R75 = biological target: T1, T2R75 (Homo sapiens, UniProt P59540); experiment: Antagonist activity against a panel of bitter taste receptors (receptor based assay): T2R75; type: cell-based
T1 sequence (P59540 1-309): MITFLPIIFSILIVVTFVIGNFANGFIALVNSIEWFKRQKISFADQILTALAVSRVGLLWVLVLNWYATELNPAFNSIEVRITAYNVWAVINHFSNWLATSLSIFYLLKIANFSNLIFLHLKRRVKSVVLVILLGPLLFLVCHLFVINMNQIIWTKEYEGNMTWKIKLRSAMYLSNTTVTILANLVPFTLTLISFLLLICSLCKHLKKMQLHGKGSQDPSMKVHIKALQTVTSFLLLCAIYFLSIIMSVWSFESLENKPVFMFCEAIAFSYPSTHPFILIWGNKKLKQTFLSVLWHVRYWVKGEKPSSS
From the text: (§1) Compounds described in this application show potent bitter antagonist effect on T2R54 in receptor based assays. […] Antagonist activity of 1-(6-methyl-2-phenylpyrimidin-4-yl)piperidine-4-carboxamide against a panel of bitter taste receptors is shown in Table 10, with the identity of each T2R as indicated in the left column, and the percentage activity remaining is indicated in the far right column.

T2R64 = biological target: T2, T2R64 (Homo sapiens, UniProt P59538); experiment: Antagonist activity against a panel of bitter taste receptors (receptor based assay): T2R64; type: cell-based
T2 sequence (P59538 1-309): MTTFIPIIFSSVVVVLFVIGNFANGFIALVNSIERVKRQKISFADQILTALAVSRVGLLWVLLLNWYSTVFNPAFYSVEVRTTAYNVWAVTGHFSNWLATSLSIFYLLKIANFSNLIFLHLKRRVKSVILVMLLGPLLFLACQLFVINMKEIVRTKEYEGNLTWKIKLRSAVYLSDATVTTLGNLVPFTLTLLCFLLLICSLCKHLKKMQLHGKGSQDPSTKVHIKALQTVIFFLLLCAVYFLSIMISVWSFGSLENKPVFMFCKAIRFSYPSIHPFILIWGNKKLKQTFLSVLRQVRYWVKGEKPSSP
From the text: as §1

T2R61 = biological target: T3, T2R61 (Homo sapiens, UniProt P59537); experiment: Antagonist activity against a panel of bitter taste receptors (receptor based assay): T2R61; type: cell-based
T3 sequence (P59537 1-309): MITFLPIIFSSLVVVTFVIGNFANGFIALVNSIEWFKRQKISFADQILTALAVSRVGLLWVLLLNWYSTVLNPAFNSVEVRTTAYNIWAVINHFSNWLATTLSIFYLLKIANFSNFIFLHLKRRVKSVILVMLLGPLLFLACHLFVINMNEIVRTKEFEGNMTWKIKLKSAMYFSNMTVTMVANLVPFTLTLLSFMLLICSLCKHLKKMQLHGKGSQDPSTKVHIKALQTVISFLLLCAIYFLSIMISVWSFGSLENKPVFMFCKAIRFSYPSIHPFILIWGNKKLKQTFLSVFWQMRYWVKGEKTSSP
From the text: as §1

hT2R54 = biological target: T4, hT2R54 (Homo sapiens, UniProt P59534); experiment: Cell-based assay for measuring hT2R54 inhibition (FLIPR calcium, Fluo4AM, acetaminophen as bitter agonist); details: read-out: hT2R54 IC50
T4 construct: expressed in transfected cells; it overexpresses a promiscuous G protein
T4 sequence (P59534 1-338): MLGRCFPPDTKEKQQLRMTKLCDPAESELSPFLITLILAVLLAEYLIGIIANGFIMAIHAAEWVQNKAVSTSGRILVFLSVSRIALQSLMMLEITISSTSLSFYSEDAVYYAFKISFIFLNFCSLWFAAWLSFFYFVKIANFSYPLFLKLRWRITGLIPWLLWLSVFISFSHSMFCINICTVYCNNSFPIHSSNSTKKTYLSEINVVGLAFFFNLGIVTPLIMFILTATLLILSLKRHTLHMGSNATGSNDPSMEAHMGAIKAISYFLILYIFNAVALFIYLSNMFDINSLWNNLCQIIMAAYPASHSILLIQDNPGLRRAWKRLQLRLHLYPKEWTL
Procedure, shortened: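 The readout was FLIPR calcium (Fluo4AM, 10 s baseline, 3 min post-addition) in cells stably carrying hT2R54 plus a promiscuous G protein, with host cells lacking hT2R54 as counter-control. Acetaminophen concentration series were tested with and without set test-compound levels. Half-maximal block of the agonist response gave the EC50/IC50.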

[1] = tested on: bitterness of epigallocatechin gallate (EGCg); experiment: Sensory experiments: taste tests comparing EGCg alone with EGCg and a bitter blocker; type: in vivo, human
Procedure: To determine the effectiveness of an individual antagonist in blocking the bitterness, taste tests were performed comparing epigallocatechin gallate (EGCg) alone, which is known to activate T2R54 with EGCg and a bitter blocker described herein, namely compound 22 (Table 2).

[2] = Table 2, cells stably expressing hT2R54 and a promiscuous G protein

Compound | IC50 (hT2R54; Table 8) | IC50 (hT2R54; Table 9) | further results
CC(=O)c1cc2c(cc1NC(=O)CN1CCN(C(=O)CC(C)C)CC1)OCO2 [Cmpd 1, N-(6-Acetylbenzo[d][1,3]dioxol-5-yl)-2-(4-(3-methylbutanoyl)piperazin-1-yl)acetamide] |  |  | bitter blocking effect on T2R75 (T2R75): significant bitter blocking effect; bitter blocking effect on T2R64 (T2R64): significant bitter blocking effect; bitter blocking effect on T2R61 (T2R61): significant bitter blocking effect; IC50 (hT2R54; [2]): 16 nM
CC(=O)c1cc2c(cc1NC(=O)CN1CCN(C(=O)C3CCCO3)CC1)OCO2 (stereo not shown) [compound 22] |  |  | Total (times sample selected as more bitter) ([1]; 600 uM EGCG + 15 uM compound versus 600 uM EGCG alone, 56 in total, p-value 0.044): 20; reduction of EGCg bitterness ([1]; taste tests, EGCg alone versus EGCg with bitter blocker): has the ability to reduce EGCg bitterness; IC50 (hT2R54; [2]): 21 nM
CC(=O)c1cc2c(cc1NC(=O)CC1CCCN(C(=O)c3cccnc3)C1)OCO2 (stereo not shown) [compound 506] | 113 nM |  | 
CC(=O)c1cc2c(cc1NC(=O)CC1CCCN(C(=O)c3ccccn3)C1)OCO2 (stereo not shown) [compound 507] | 275 nM |  | 
COC(=O)c1cc2c(cc1NC(=O)CC1CCCN(C(C)=O)C1)OCCO2 (stereo not shown) [compound 508] | 1200 nM |  | 
CC(=O)c1cc2c(cc1NC(=O)CC1CN(C(C)=O)CCO1)OCO2 (stereo not shown) [compound 509] | 180 nM |  | 
CC(=O)c1cc2c(cc1NC(=O)CC1CN(C(=O)C3CCCO3)CCO1)OCO2 (stereo not shown) [compound 510] | 150 nM |  | 
COc1cc2c(cc1NC(=O)CC1CCCN(C(=O)CC(C)C)C1)OCO2 (stereo not shown) [compound 511] | > 10000 nM |  | 
COc1cc2c(cc1NC(=O)CC1CCCN(C(=O)c3ccco3)C1)OCO2 (stereo not shown) [compound 512] | 7700 nM |  | 
COc1cc2c(cc1NC(=O)CC1CCCN(C(=O)c3ccccc3)C1)OCO2 (stereo not shown) [compound 513] | 2700 nM |  | 
CCS(=O)(=O)N1CCCC(CC(=O)Nc2cc3c(cc2OC)OCO3)C1 (stereo not shown) [compound 515] | 500 nM |  | 
CC(=O)c1cc2c(cc1NC(=O)CC(C)C)OCO2 [compound 516] |  | 3000 nM | 
CC(=O)c1cc2c(cc1NC(=O)CC1CCCC1)OCO2 [compound 517] |  | 414 nM | 
CC(=O)c1cc2c(cc1NC(=O)Cc1c(C)noc1C)OCO2 [compound 518] |  | 3800 nM | 
CC(=O)c1cc2c(cc1NC(=O)CC1CCCN(C(=O)OC(C)(C)C)C1)OCO2 (stereo not shown) [compound 519] |  | 900 nM | 
COc1cc2c(cc1NC(=O)CC1CCCC1)OCO2 [compound 520] |  | 308 nM | 
COc1cc2c(cc1NC(=O)CC1CCCCO1)OCO2 (stereo not shown) [compound 521] |  | 2260 nM | 
COc1ccccc1CC(=O)Nc1cc2c(cc1OC)OCO2 [compound 522] |  | 886 nM | 
CC(=O)c1cc2c(cc1NC(=O)Cc1ccco1)OCO2 [compound 523] |  | 2310 nM | 
COc1cc2c(cc1NC(=O)Cc1ccsc1)OCO2 [compound 524] |  | 868 nM | 
COc1cc2c(cc1NC(=O)C(C)C1CCN(C(=O)OC(C)(C)C)CC1)OCO2 (stereo not shown) [compound 525] |  | 3000 nM | 
COC(=O)c1cc2c(cc1NC(=O)CC1CCN(C(=O)OC(C)(C)C)CC1)OCO2 [compound 528] |  | ~1000 nM | 
COC(=O)c1cc2c(cc1NC(=O)CC1CCOCC1)OCCO2 [compound 529] |  | 12000 nM | 
